target: MAP kinase p38 (Mus musculus, UniProt P47811+O08911+Q9WUI1+Q9Z1B7); experiment: Inhibitory activity against mouse Mitogen-activated protein kinase p38; type: protein assay

Row | SMILES | IC50 [nM]
1 | O=C1NCc2nc(Sc3ccc(F)cc3F)c(N3CCC(CCN4CCCC4)CC3)cc2N1c1c(Cl)cccc1Cl | 6
2 | O=C1NCc2nc(Sc3ccc(F)cc3F)c(NC3CCNCC3)cc2N1c1c(Cl)cccc1Cl | 4
3 | CC(C)(C)OC(=O)N1CCN(c2cc3c(nc2Sc2ccc(F)cc2F)CNC(=O)N3c2c(Cl)cccc2Cl)CC1 | 25
4 | O=C1NCc2nc(Sc3ccc(F)cc3F)c(Br)cc2N1c1c(Cl)cccc1Cl | 16
5 | CC(C)N1CCN(c2cc3c(nc2Sc2ccc(F)cc2F)CNC(=O)N3c2c(Cl)cccc2Cl)CC1 | 7
6 | O=C1NCc2nc(Sc3ccc(F)cc3F)c(N3CCCCC3)cc2N1c1c(Cl)cccc1Cl | 4.2
7 | O=C1NCc2nc(Sc3ccc(F)cc3F)c(N3CCN(CCN4CCCC4)CC3)cc2N1c1c(Cl)cccc1Cl | 1.1
8 | CN(C)CCN1CCN(c2cc3c(nc2Sc2ccc(F)cc2F)CNC(=O)N3c2c(Cl)cccc2Cl)CC1 | 0.6
9 | O=C1NCc2nc(Sc3ccc(F)cc3F)c(OC3CCNCC3)cc2N1c1c(Cl)cccc1Cl | 11

The remaining lines, values ahead:

Row | IC50 [nM] | SMILES
10 | 44 | CC(C)(C)OC(=O)N1CC2CC1CN2c1cc2c(nc1Sc1ccc(F)cc1F)CNC(=O)N2c1c(Cl)cccc1Cl (configuration not stated)
11 | 0.6 | O=C1NCc2nc(Sc3ccc(F)cc3F)c(N3CC4CC3CN4)cc2N1c1c(Cl)cccc1Cl (configuration not stated)
12 | 3 | CC1CN(c2cc3c(nc2Sc2ccc(F)cc2F)CNC(=O)N3c2c(Cl)cccc2Cl)CC(C)O1 (configuration not stated)
13 | 2 | O=C1NCc2nc(Sc3ccc(F)cc3F)c(N3CCNCC3)cc2N1c1c(Cl)cccc1Cl
14 | 5.3 | O=C1NCc2nc(Sc3ccc(F)cc3F)c(N3CC4CCC3C4)cc2N1c1c(Cl)cccc1Cl (configuration not stated)
15 | 3 | O=C1NCc2nc(Sc3ccc(F)cc3F)c(N3CC4CC3CN4CC3CC3)cc2N1c1c(Cl)cccc1Cl (configuration not stated)
16 | 2 | CC(C)N1CC2CC1CN2c1cc2c(nc1Sc1ccc(F)cc1F)CNC(=O)N2c1c(Cl)cccc1Cl (configuration not stated)
17 | 3 | O=C1NCc2nc(Sc3ccc(F)cc3F)c(N3CC4CC3CN4C3CC3)cc2N1c1c(Cl)cccc1Cl (configuration not stated)
18 | 9 | CCN1CC2CC1CN2c1cc2c(nc1Sc1ccc(F)cc1F)CNC(=O)N2c1c(Cl)cccc1Cl (configuration not stated)
19 | 2 | O=C1NCc2nc(Sc3ccc(F)cc3F)c(N3CCOCC3)cc2N1c1c(Cl)cccc1Cl

tested on: THP-1; experiment: Anti human TNF-alpha activity determined through TNF-alpha release was measured in the supernatants by ELISA.; not active at a concentration of <10 uM; type: functional, cell-based; call rule not given here

Row | IC50 | SMILES
20 | Not Active | O=C1NCc2nc(Sc3ccc(F)cc3F)c(Br)cc2N1c1c(Cl)cccc1Cl

tested on: THP-1; experiment: Anti human TNF-alpha activity determined through TNF-alpha release was measured in the supernatants by ELISA; not active at a concentration of <10 uM; type: functional, cell-based

Row | IC50 | SMILES
21 | Not Active | CC(C)(C)OC(=O)N1CC2CC1CN2c1cc2c(nc1Sc1ccc(F)cc1F)CNC(=O)N2c1c(Cl)cccc1Cl (configuration not stated)
22 | Not Active | CC(C)(C)OC(=O)N1CCN(c2cc3c(nc2Sc2ccc(F)cc2F)CNC(=O)N3c2c(Cl)cccc2Cl)CC1

— ChEMBL document CHEMBL1136270 (Bioorg Med Chem Lett, 2003)
